# Reference: US6828348B2, “L-ascorbic acid-2-o-maleic acid-a-tocopherol diester 1-propanol adduct and process for producing the same” (Senju Pharmaceutical Co., Ltd., priority 2002, dated 2004)
# Like-named read-outs stand apart in the source and are kept apart here.
# Legend:
# [1] = 4 weeks, liquid chromatography
# Method: The experimental conditions are as follows:
# Detector: Ultraviolet absorptiometer (wave length: 220 nm)
# Column: A stainless steel tube of 6 mm ID and 15 cm length being packed with octadecylated silica gel of […] in particle size designed for use in liquid chromatograph.
# Mobile phase: As prepared by dissolving 0.4 g of crystalline sodium dihydrogenphosphate and 0.3 g of sodium chloride in 50 ml of water, and adding 500 ml of methanol and 450 ml of acetonitrile, followed by addition of phosphoric acid to adjust to pH 4.0.
# Flow rate: As regulated so that the retention time may be about 12 min.
# [2] = target: T1, elastase originated from human white blood cells (Homo sapiens, UniProt P08246); test: Elastase inhibitory activity (fluorogenic synthetic substrate); type: biochemical
# T1 construct: elastase originated from human white blood cells; from tissue; host or cells: human white blood cells
# T1 sequence (P08246 30-247 limits assumed): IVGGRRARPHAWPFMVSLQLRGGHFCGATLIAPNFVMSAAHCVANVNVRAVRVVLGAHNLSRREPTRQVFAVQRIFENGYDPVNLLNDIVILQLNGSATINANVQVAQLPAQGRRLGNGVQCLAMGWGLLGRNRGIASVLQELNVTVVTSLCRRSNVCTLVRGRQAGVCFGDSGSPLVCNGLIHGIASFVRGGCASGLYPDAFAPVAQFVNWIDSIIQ
# Text: are the reversibly extensible, highly elastic protein that is principal constituent of elastic fibers to maintain the extensibility and elasticity of the skin. […] are degraded and synthesized in the sustainable manner, thus acting to maintain the extensibility and elasticity of the skin, but may lose their extensibility and elasticity, when the rate of their degradation by elastase owing to aging, etc. exceeds the rate of their synthesis. Accordingly, inhibition of the elastase enables the skin to maintain its extensibility and elasticity. Such being the case, the Compound of the present invention is tested for its elastase inhibitory activity in the following manner: […] Testing method […]
Molecule,Residual ratio ([1]; storage at 4° C.),Residual ratio ([1]; storage at 40° C.),Residual ratio ([1]; storage at 50° C.),"Elastase inhibitory activity (in words) ([2]; 0.01 to 1 mM, Table 2)",Ratio of elastase inhibition ([2]; test specimen 0.01 mM),Ratio of elastase inhibition ([2]; test specimen 0.1 mM),Ratio of elastase inhibition ([2]; test specimen 1 mM)
"CCO.Cc1c(C)c2c(c(C)c1OC(=O)/C=C\C(=O)OC1=C(O)[C@@H]([C@@H](O)CO)OC1=O)CCC(C)(CCCC(C)CCCC(C)CCCC(C)C)O2 (stereo partly drawn) [Reference Example 1, L-Ascorbic acid-2-O-maleic acid-α-tocopherol diester.ethanol adduct]",99.7%,90.9%,81.7%,–,–,–,–
L-Ascorbic acid-2-O-maleic acid-α-tocopherol diester.1-propanol adduct [Example 1],–,–,–,remarkable elastase inhibitory activity,4,19,71
